Assay results from patent US9346824B2, “Cyclohexyl-4H,6H-5-oxa-2,3,10b-triaza-benzo[e]azulenes as V1a antagonists” (Hoffmann-La Roche Inc., priority 2011, dated 2016).

Molecular target: T1, human V1a receptor (Homo sapiens, UniProt P37288)
T1 construct: expressed in transfected cells; host or cells: HEK293 cells, transiently transfected; cell membranes
Experiment: human V1a receptor binding (3H-Vasopressin SPA, membranes of transfected HEK293 cells)
Details: HEK293 cell membranes, Ki by Cheng-Prussoff equation, read-out: pKi hV1a (converted)
Procedure: The human V1a receptor was cloned by RT-PCR from total human liver RNA. The coding sequence was subcloned in an expression vector after sequencing to confirm the identity of the amplified sequence. […] Cell membranes were prepared from HEK293 cells transiently transfected with the expression vector and grown in 20 liter fermenters with the following protocol.
50 g of cells are resuspended in 30 ml freshly prepared ice cold Lysis buffer (50 mM HEPES, 1 mM EDTA, 10 mM MgCl2 adjusted to pH=7.4+complete cocktail of protease inhibitor (Roche Diagnostics)). Homogenized with Polytron for 1 min and sonicated on ice for 2×2 minutes at 80% intensity (Vibracell sonicator). The preparation is centrifuged 20 min at 500 g at 4° C., the pellet is discarded and the supernatant centrifuged 1 hour at 43′000 g at 4° C. (19,000 rpm). The pellet is resuspended in 12.5 ml Lysis buffer+12.5 ml Sucrose 20% and homogenized using a Polytron for 1-2 min. The protein concentration is determined by the Bradford method and aliquots are stored at −80° C. until use. For binding studies 60 mg Yttrium silicate SPA beads (Amersham) are mixed with an aliquot of membrane in binding buffer (50 mM Tris, 120 mM NaCl, 5 mM KCl, 2 mM CaCl2, 10 mM MgCl2) for 15 minutes with mixing. 50 μl of bead/membrane mixture is then added to each well of a 96 well plate, followed by 50 μl of 4 nM 3H-Vasopressin (American Radiolabeled Chemicals). For total binding measurement 100 μl of binding buffer are added to the respective wells, for non-specific binding 100 μl of […] cold vasopressin and for compound testing 100 μl of a serial dilution of each compound in 2% DMSO. The plate is incubated 1 h at room temperature, centrifuged 1 min at 1000 g and counted on a Packard Top-Count. Non-specific binding counts are subtracted from each well and data is normalized to the maximum specific binding set at 100%. To calculate an IC 50 the curve is fitted using a non-linear regression model (XLfit) and the Ki is calculated using the Cheng-Prussoff equation.

T1 sequence (P37288 whole entry): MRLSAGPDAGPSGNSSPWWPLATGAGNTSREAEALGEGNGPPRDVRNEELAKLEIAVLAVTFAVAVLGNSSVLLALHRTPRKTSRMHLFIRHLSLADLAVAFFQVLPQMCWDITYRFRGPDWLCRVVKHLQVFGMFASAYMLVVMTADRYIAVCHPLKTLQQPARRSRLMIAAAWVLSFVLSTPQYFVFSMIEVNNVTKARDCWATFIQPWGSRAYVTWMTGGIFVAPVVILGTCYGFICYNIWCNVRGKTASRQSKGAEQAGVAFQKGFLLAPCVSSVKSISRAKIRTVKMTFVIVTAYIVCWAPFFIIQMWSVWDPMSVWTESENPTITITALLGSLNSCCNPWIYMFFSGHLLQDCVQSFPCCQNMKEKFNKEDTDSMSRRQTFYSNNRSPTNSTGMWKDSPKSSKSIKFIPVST

Row | Ki | SMILES
1 | 2.4 nM | Fc1cccnc1[C@H]1CC[C@H](c2nnc3n2-c2ccc(Cl)cc2COC3)CC1 [Example 1]
2 | 7.41 nM | Clc1ccc2c(c1)COCc1nnc([C@H]3CC[C@H](c4noc5ccccc54)CC3)n1-2 [Example 2, 1-(4-Benzo[d]isoxazol-3-yl-cyclohexyl)-8-chloro-4H,6H-5-oxa-2,3,10b-triaza-benzo[e]azulene]
3 | 0.288 nM | Clc1ccc2c(c1)COCc1nnc([C@H]3CC[C@H](c4nsc5ccccc54)CC3)n1-2 [Example 3, 1-(4-Benzo[d]isothiazol-3-yl-cyclohexyl)-8-chloro-4H,6H-5-oxa-2,3,10b-triaza-benzo[e]azulene]
4 | 3.98 nM | Cc1cc([C@H]2CC[C@H](c3nnc4n3-c3ccc(Cl)cc3COC4)CC2)no1 [Example 4, 8-Chloro-1-[4-(5-methyl-isoxazol-3-yl)-cyclohexyl]-4H,6H-5-oxa-2,3,10b-triaza-benzo[e]azulene]
5 | 15.5 nM | Clc1ccc2c(c1)COCc1nnc([C@H]3CC[C@H](c4onc5c4CCCC5)CC3)n1-2 [Example 5, 8-Chloro-1-[4-(4,5,6,7-tetrahydro-benzo[c]isoxazol-3-yl)-cyclohexyl]-4H,6H-5-oxa-2,3,10b-triaza-benzo[e]azulene]
6 | 4.9 nM | Clc1ccc2c(c1)COCc1nnc([C@H]3CC[C@H](c4n[nH]c5c4CCCC5)CC3)n1-2 [Example 6, 8-Chloro-1-[4-(4,5,6,7-tetrahydro-1H-indazol-3-yl)-cyclohexyl]-4H,6H-5-oxa-2,3,10b-triaza-benzo[e]azulene]
7 | 32.4 nM | Cc1nc([C@H]2CC[C@H](c3nnc4n3-c3ccc(Cl)cc3COC4)CC2)no1 [Example 7, 8-Chloro-1-[4-(5-methyl-[1,2,4]oxadiazol-3-yl)-cyclohexyl]-4H,6H-5-oxa-2,3,10b-triaza-benzo[e]azulene]
8 | 2.4 nM | FC(F)(C1CCCC1)[C@H]1CC[C@H](c2nnc3n2-c2ccc(Cl)cc2COC3)CC1 [Example 8, 8-Chloro-1-[4-(cyclopentyl-difluoro-methyl)-cyclohexyl]-4H,6H-5-oxa-2,3,10b-triaza-benzo[e]azulene]

Row | SMILES | Ki
9 | CC(C)C[C@H]1CC[C@H](c2nnc3n2-c2ccc(Cl)cc2COC3)CC1 [Example 9, 8-Chloro-1-(4-isobutyl-cyclohexyl)-4H,6H-oxa-2,3,10b-triaza-benzo[e]azulene] | 25.7 nM
